Assay results taken from PubChem BioAssay AID248 (DTP/NCI, 2004).
Values joined by “and” are separate entries in the source; they are usually repeats but may differ in a detail not shown here. Equal values may be shown once. Inconclusive results and toxic doses are left out. Rule as the data show it: active = T/C of 150% or more; inactive = T/C below 125%.

System: L1210 leukemia ip in BDF1 mice, survival T/C
Test: NCI In Vivo Anticancer Drug Screen. Data for tumor model L1210 Leukemia (intraperitoneal) in B6D2F1 (BDF1) mice
Conditions: endpoint: mean survival time, higher = longer survival
In short: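 Mice bearing the transplanted tumor received compound or vehicle. Survival of the treated group was divided by that of the vehicle-treated control group to give the ratio.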

[1] = dose: 100.0 mg/kg/injection, schedule: Q01DX001 (ip), vehicle: carboxymethylcellulose (CMC)
[2] = dose: 50.0 mg/kg/injection, schedule: Q01DX001 (ip), vehicle: saline
[3] = dose: 100.0 mg/kg/injection, schedule: Q01DX001 (ip), vehicle: saline
[4] = dose: 200.0 mg/kg/injection, schedule: Q01DX001 (ip), vehicle: saline
[5] = dose: 50.0 mg/kg/injection, schedule: Q01DX009 (ip), vehicle: saline
[6] = dose: 100.0 mg/kg/injection, schedule: Q01DX009 (ip), vehicle: saline
[7] = dose: 100.0 mg/kg/injection, schedule: Q04DX003 (ip), vehicle: saline
[8] = dose: 200.0 mg/kg/injection, schedule: Q04DX003 (ip), vehicle: saline
[9] = dose: 200.0 mg/kg/injection, schedule: Q01DX009 (ip), vehicle: saline
[10] = dose: 100.0 mg/kg/injection, schedule: Q01DX009 (ip), vehicle: Klucel (hydroxypropylcellulose) (HPC)
[11] = dose: 200.0 mg/kg/injection, schedule: Q01DX009 (ip), vehicle: Klucel (hydroxypropylcellulose) (HPC)

Measured: T/C

COc1cc2c(c(OC)c1OC)-c1cc(I)c(O)cc1[C@@H](NC(C)=O)CC2
active: dose: 400.0 mg/kg/injection, schedule: Q01DX009 (ip), vehicle: saline sonified 165 % of control
inactive: dose: 8.0 mg/kg/injection, schedule: Q01DX Z (ip), vehicle: carboxymethylcellulose (CMC) 104 % of control | dose: 11.0 mg/kg/injection, schedule: Q01DX009 (ip), vehicle: saline with Tween-80 114 % of control | dose: 12.0 mg/kg/injection, schedule: Q01DX Z (ip), vehicle: carboxymethylcellulose (CMC) 109 % of control | dose: 16.5 mg/kg/injection, schedule: Q01DX009 (ip), vehicle: saline with Tween-80 115 % of control | dose: 18.0 mg/kg/injection, schedule: Q01DX Z (ip), vehicle: carboxymethylcellulose (CMC) 119 % of control | dose: 25.0 mg/kg/injection, schedule: Q01DX009 (ip), vehicle: saline with Tween-80 110 % of control | dose: 28.0 mg/kg/injection, schedule: Q01DX Z (ip), vehicle: carboxymethylcellulose (CMC) 118 % of control | dose: 28.0 mg/kg/injection, schedule: Q01DX Z (ip), vehicle: saline 123 % of control | dose: 40.0 mg/kg/injection, schedule: Q01DX015 (ip), vehicle: carboxymethylcellulose (CMC) 104 % of control | dose: 44.0 mg/kg/injection, schedule: Q04DX003 (ip), vehicle: saline sonified 100 % of control | dose: 45.0 mg/kg/injection, schedule: Q01DX Z (ip), vehicle: saline 122 % of control | dose: 50.0 mg/kg/injection, schedule: Q01DX001 (ip), vehicle: carboxymethylcellulose (CMC) 124 % of control | dose: 65.0 mg/kg/injection, schedule: Q01DX Z (ip), vehicle: saline 105 % of control | dose: 66.0 mg/kg/injection, schedule: Q04DX003 (ip), vehicle: saline sonified 107 % of control | [1] 120 % of control | dose: 100.0 mg/kg/injection, schedule: Q01DX009 (ip), vehicle: saline sonified 124 % of control | dose: 100.0 mg/kg/injection, schedule: Q01DX Z (ip), vehicle: carboxymethylcellulose (CMC) 122 % of control | dose: 100.0 mg/kg/injection, schedule: Q04DX003 (ip), vehicle: saline sonified 108 % of control | dose: 150.0 mg/kg/injection, schedule: Q04DX003 (ip), vehicle: saline sonified 124 % of control | dose: 200.0 mg/kg/injection, schedule: Q04DX003 (ip), vehicle: Klucel (hydroxypropylcellulose) (HPC) 111 % of control | dose: 400.0 mg/kg/injection, schedule: Q04DX003 (ip), vehicle: Klucel (hydroxypropylcellulose) (HPC) 96 % of control

Clc1ccc(C(c2ccccc2Cl)C(Cl)Cl)cc1 (stereo not given)
inactive: dose: 62.5 mg/kg/injection, schedule: Q01DX009 (sc), vehicle: steriod suspending solution 98 % of control and 101 % of control | dose: 62.5 mg/kg/injection, schedule: Q01DX010 (sc), vehicle: saline 91 % of control | dose: 62.5 mg/kg/injection, schedule: Q01DX010 (sc), vehicle: steriod suspending solution 102 % of control | dose: 125.0 mg/kg/injection, schedule: Q01DX009 (sc), vehicle: steriod suspending solution 98 % of control and 103 % of control | dose: 125.0 mg/kg/injection, schedule: Q01DX010 (sc), vehicle: saline 102 % of control | dose: 125.0 mg/kg/injection, schedule: Q01DX010 (sc), vehicle: steriod suspending solution 98 % of control | dose: 250.0 mg/kg/injection, schedule: Q01DX009 (sc), vehicle: steriod suspending solution 97 % of control and 100 % of control | dose: 250.0 mg/kg/injection, schedule: Q01DX010 (sc), vehicle: saline 91 % of control | dose: 250.0 mg/kg/injection, schedule: Q01DX010 (sc), vehicle: steriod suspending solution 102 % of control | dose: 500.0 mg/kg/injection, schedule: Q01DX009 (sc), vehicle: steriod suspending solution 97 % of control and 101 % of control | dose: 500.0 mg/kg/injection, schedule: Q01DX010 (sc), vehicle: saline 94 % of control | dose: 500.0 mg/kg/injection, schedule: Q01DX010 (sc), vehicle: steriod suspending solution 98 % of control

O=C(O)C[P+](c1ccccc1)(c1ccccc1)c1ccccc1
inactive: [2] 106 % of control | [3] 112 % of control

N#Cc1c(C#N)c(/N=C/c2ccccc2)n(/N=C/c2ccccc2)c1N
inactive: dose: 87.5 mg/kg/injection, schedule: Q04DX003 (ip), vehicle: other 91 % of control | dose: 175.0 mg/kg/injection, schedule: Q04DX003 (ip), vehicle: other 93 % of control | dose: 350.0 mg/kg/injection, schedule: Q04DX003 (ip), vehicle: other 95 % of control

CCCCCCOCC(O)CNCCN (stereo not given)
inactive: dose: 6.25 mg/kg/injection, schedule: Q04DX003 (ip), vehicle: saline with Tween-80 95 % of control | dose: 12.5 mg/kg/injection, schedule: Q04DX003 (ip), vehicle: saline with Tween-80 90 % of control | dose: 25.0 mg/kg/injection, schedule: Q04DX003 (ip), vehicle: saline with Tween-80 96 % of control

Nc1nc(Nc2ccc(NC=O)cc2)c(NC=O)c(=O)[nH]1
inactive: [2] 89 % of control | [4] 86 % of control

C#CC(O)(/C=C\Cl)CC (stereo not given)
inactive: dose: 12.5 mg/kg/injection, schedule: Q01DX009 (ip), vehicle: saline 102 % of control | dose: 25.0 mg/kg/injection, schedule: Q01DX009 (ip), vehicle: saline 93 % of control | dose: 25.0 mg/kg/injection, schedule: Q04DX003 (ip), vehicle: saline 101 % of control | [5] 94 % of control | dose: 50.0 mg/kg/injection, schedule: Q04DX003 (ip), vehicle: saline 95 % of control | [6] 86 % of control | [7] 97 % of control | [8] 106 % of control

CN(C)P(=O)(N(C)C)N(C)C.[Cl][Al]([Cl])[Cl]
inactive: [5] 91 % of control | [6] 88 % of control | [9] 95 % of control

CSc1ccc(NC(=O)Nc2cc(C(C)C)ccc2C)cc1
inactive: [10] 103 % of control | [11] 104 % of control | dose: 400.0 mg/kg/injection, schedule: Q01DX009 (ip), vehicle: Klucel (hydroxypropylcellulose) (HPC) 98 % of control

CCOC(=O)C1CCC(C(=O)OCC)N1c1ccc(C=O)cc1 (stereo not given)
inactive: dose: 100.0 mg/kg/injection, schedule: Q01DX009 (sc), vehicle: olive oil, sesame oil, peanut oil 104 % of control | dose: 100.0 mg/kg/injection, schedule: Q04DX003 (sc), vehicle: olive oil, sesame oil, peanut oil 112 % of control | dose: 200.0 mg/kg/injection, schedule: Q01DX009 (sc), vehicle: olive oil, sesame oil, peanut oil 96 % of control | dose: 200.0 mg/kg/injection, schedule: Q04DX003 (sc), vehicle: olive oil, sesame oil, peanut oil 112 % of control | dose: 400.0 mg/kg/injection, schedule: Q01DX009 (sc), vehicle: olive oil, sesame oil, peanut oil 110 % of control | dose: 400.0 mg/kg/injection, schedule: Q04DX003 (sc), vehicle: olive oil, sesame oil, peanut oil 102 % of control

CCOC(=O)c1[nH]cnc1N
inactive: [3] 96 % of control | [4] 94 % of control | dose: 400.0 mg/kg/injection, schedule: Q01DX001 (ip), vehicle: saline 96 % of control

COc1cc(C(=O)NN(C)C)cc(OC)c1OC
inactive: [1] 97 % of control | dose: 200.0 mg/kg/injection, schedule: Q01DX001 (ip), vehicle: carboxymethylcellulose (CMC) 101 % of control | dose: 400.0 mg/kg/injection, schedule: Q01DX001 (ip), vehicle: carboxymethylcellulose (CMC) 101 % of control

CCOC(=O)c1cc(C)[nH]c1C
inactive: dose: 100.0 mg/kg/injection, schedule: Q01DX009 (ip), vehicle: gum acacia 100 % of control | dose: 200.0 mg/kg/injection, schedule: Q01DX009 (ip), vehicle: gum acacia 95 % of control | dose: 400.0 mg/kg/injection, schedule: Q01DX009 (ip), vehicle: gum acacia 105 % of control

O/N=C(/C=C(/C(=C/C(=N/O)c1ccccc1)c1ccccc1)c1ccccc1)c1ccccc1
inactive: dose: 50.0 mg/kg/injection, schedule: Q01DX009 (ip), vehicle: Klucel (hydroxypropylcellulose) (HPC) 102 % of control | [10] 94 % of control | [11] 87 % of control

CC(C)(CO)N=Cc1cc(Cl)cc(Cl)c1O
inactive: dose: 75.0 mg/kg/injection, schedule: Q01DX001 (ip), vehicle: saline 102 % of control | dose: 150.0 mg/kg/injection, schedule: Q01DX001 (ip), vehicle: saline 101 % of control | dose: 300.0 mg/kg/injection, schedule: Q01DX001 (ip), vehicle: saline 109 % of control

CCOC(=O)C(O)(CC)CC
inactive: [6] 96 % of control | [7] 93 % of control | [9] 101 % of control | [8] 93 % of control | dose: 400.0 mg/kg/injection, schedule: Q01DX009 (ip), vehicle: saline 102 % of control | dose: 400.0 mg/kg/injection, schedule: Q04DX003 (ip), vehicle: saline 95 % of control
